Read-outs that look alike come from different tables or passages of the source.
What was measured:
J774 cells = experiment: Cytotoxicity in mammalian cells (CellTiter-Glo), J774; assay type: cell-based; settings: J774 murine macrophage line; 72 h drug incubation; mean of three experiments; read-out: mammalian cells CC50 (±SEM), J774
Experimental: (§1) Cell lines J774 and HepG2 were incubated with the drug for 72 h, the same time frame as employed to determine antimalarial activity. Cytotoxicity was evaluated in parallel with ATV as a representative parental drug, while doxorubicin was used as a standard cytotoxic drug. These experiments were also used to estimate the in vitro selectivity index (Table 2).
(§2) Doxorubicin chloridrate (Eurofarma, São Paulo, Brazil) was used as a positive control, while untreated cells were employed as negative controls. Bioluminescence readings were performed using a Filtermax F5Multi-Mode instrument (Molecular Devices, Sunnyvale, CA) using the CellTiter-Glo kit (Promega Corporation, Madison, USA). Three independent experiments were performed and CC50 values were calculated.

[1] = system: P. falciparum 3D7 (CQ-susceptible strain); experiment: Antiplasmodial activity, asexual blood stages, HRP2 ELISA-based assay, 3D7 strain; assay type: cell-based, Plasmodium falciparum; settings: read-out: P. falciparum IC50 (±SEM), 3D7
Description: We determined the half-maximal inhibitory concentration (IC50) of the complexes against asexual blood stages of P. falciparum using CQ-susceptible and CQ-resistant strains (Table 2). […]. Two strains were selected for the tests: the CQ-susceptible 3D7 strain (isolated in West Africa; obtained from MR4, VA, USA), and the CQ-resistant W2 strain (isolated in Indochina; obtained from MR4, VA, USA). Both were maintained in culture in RPMI 1640 (Invitrogen, Paisley, UK), supplemented with 10% human serum (Abcys S.A. Paris, France), and buffered with 25 mM HEPES and 25 mM NaHCO3. Parasites were grown in A-positive human blood (Etablissement Français du Sang, Marseille, France) in controlled atmospheric conditions that consisted of 10% O2, 5% CO2, and 85% N2 at 37 °C with 95% humidity. […]
For in vitro isotopic microtests, 25 μL/well of antimalarial drug and 200 μL/well of parasitized red blood cell suspension (final parasitemia 0.5%, final hematocrit 1.5%) were distributed into 96-well plates. The plates were incubated for 72 h at 37 °C in 85% N2, 10% O2, 5% CO2. After freezing and then thawing, the hemolyzed cultures were homogenized by vortexing the plates. The drug susceptibility assay was performed using the HRP2 ELISA-based assay of the Malaria Ag Celisa kit (ref KM2159, Cellabs PTY LDT, Brookvale, Australia), as described previously.[72] […] […]. IC50 are expressed as means of at least 5 to 7 independent experiments.

[2] = system: P. falciparum W2 (CQ-resistant strain); experiment: Antiplasmodial activity, asexual blood stages, HRP2 ELISA-based assay, W2 strain; assay type: cell-based, Plasmodium falciparum; settings: read-out: P. falciparum IC50 (±SEM), W2
Experimental: The potency of the metal complexes to inhibit parasite growth was also examined in comparison with ATV.
The two strains were synchronized twice with sorbitol before use,[69] and clonality was verified every 15 days through PCR genotyping of the polymorphic genetic markers msp1 and msp2 and microsatellite loci.[70],[71] Compounds were resuspended in DMSO and then diluted in RPMI-DMSO (99v/1v) to obtain final concentrations ranging from 0.25 to 20000 nM.
After freezing and then thawing, the hemolyzed cultures were homogenized by vortexing the plates. The drug susceptibility assay was performed using the HRP2 ELISA-based assay of the Malaria Ag Celisa kit (ref KM2159, Cellabs PTY LDT, Brookvale, Australia), as described previously.[72]

[3] = system: β-hematin crystal formation; experiment: β-Hematin crystal formation by FTIR spectroscopy; assay type: biochemical; settings: acid-buffered medium pH 5; 1:3 hematin/compound ratio
Experimental: The ability of these compounds to inhibit the formation of β-hematin crystals was investigated by IR spectroscopy (Figure 2f). Of note, β-hematin crystal formation was assayed in an acid-buffered medium, while hemin titration was assayed at neutral pH. […]. For both ATV and complexes 1–3, there may have been overlapping between a decrease in the (C = O) band of heme species and a (C = O) band of quinone. However, there was no danger of overlaps in the (C–O) band of heme species at 1210 cm^–1, since these species are absent from the drugs.
The conversion of hematin into β-hematin crystals was determined by FTIR spectroscopy as described previously.[52] In a microtube, 20 mg hemin and three equivalents of the compounds were dissolved in 3 mL 0.1 M NaOH solution and stirred for 30 min at 60 °C. Then, 0.3 mL 0.1 M HCl and 1.7 mL sodium acetate buffer (10 M, pH 5) were added at the same temperature. […] After incubation for 120 min, the reaction mixture was cooled on ice for 10 min and then centrifuged and washed with water to remove salts. Resulting crystals were dried and IR spectra were obtained using ATR mode.[66]−[68]

[4] = Interaction with ferriprotoporphyrin IX, spectroscopic titration of Soret band at 402 nm; assay type: binding; settings: pH 7.4; 40% aqueous DMSO; 1:1 complexation model; mean and SEM of three experiments
Experimental: The association constants (Log K) of the compounds with hemin were determined at pH 7.4 using a 1:1 complexation model with the equation proposed by Egan et al.[52] for the nonlinear least-squares fitting (Figure 2, Table 2).
Following a procedure described in the literature,[52] the association constant (Log K) of the drugs with ferriprotoporphyrin IX was determined in 40% aqueous DMSO. A stock solution of hemin chloride was prepared by adding 3.5 mg hemin to 10 mL DMSO and adjusted to pH 7.5. A working solution of hemin in 40% DMSO was further prepared by mixing 140 μL hemin stock solution, 5 mL distilled water, 3.86 mL DMSO, and 1 mL 0.2 M Tris (tris(hydroxymethyl)aminomethane) buffer. Aliquots of compounds were added to this working hemin solution. Blank solutions containing only hemin or compounds were prepared to subtract the absorbance of the compounds. […] Binding affinity was determined using the equation A = (A0 + A∞K[C])/(1 + K[C]) for a 1:1 complexation model using nonlinear least-squares fitting, where A0 is the absorbance of Fe(III)PPIX, A∞ is the absorbance of the compound–hemin adduct at saturation, and K is the association constant. Three independent experiments were performed.

[5] = Cytotoxicity in mammalian cells (CellTiter-Glo), J774; assay type: cell-based; settings: mouse, J774 macrophage cells; J774 murine macrophage line; 72 h drug incubation; mean of three experiments; read-out: mammalian cells CC50 (±SEM), J774
Experimental: as §1, §2

[6] = Cytotoxicity in mammalian cells (CellTiter-Glo), HepG2; assay type: cell-based; settings: HepG2 hepatocellular carcinoma cells; HepG2 human hepatocellular carcinoma line; 72 h drug incubation; mean of three experiments; read-out: mammalian cells CC50 (±SEM), HepG2
Experimental: as §1, §2

[7] = CQ-susceptible 3D7 strain, 72 h drug incubation, mean of five to seven experiments
[8] = CQ-resistant W2 strain, 72 h drug incubation, mean of five to seven experiments

SMILES | CC50 (J774 cells) [µM] | IC50 [1, 7] [µM] | IC50 [2, 8] [µM] | other results
[Cl][Au].c1ccc(P(c2ccccc2)c2ccccc2)cc1 [AuClPPh3, [Au(PPh3)Cl]] | 4.1 ± 0.8 | 1.43 ± 0.309 | 3.29 ± 0.629 | –
CCN(CC)CCCC(C)Nc1ccnc2cc(Cl)ccc12 (stereo not drawn) [CQ, chloroquine] | – | – | – | IC50 ([1]; Plasmodium falciparum, 3D7, 72 h): 0.0238 ± 0.0055 µM; inhibition of β-hematin crystal formation (IR bands 1663 and 1210 cm^–1) [3]: decreased simultaneously in these two bands; log K (association constant of drug binding to hemin) [4]: 4.78 ± 0.01; IC50 ([2]; Plasmodium falciparum, W2, 72 h): 0.526 ± 0.126 µM
COc1cccc2c1C(=O)c1c(O)c3c(c(O)c1C2=O)C[C@@](O)(C(=O)CO)C[C@@H]3O[C@H]1C[C@H](N)[C@H](O)[C@H](C)O1 [DOX, Doxorubicin, reference compound] | – | – | – | CC50 at 72 h [5]: 0.44 ± 0.31 µM; CC50 at 72 h [6]: < 0.12 µM
O=[N+]([O-])[O-].[Cu+].c1ccc(P(c2ccccc2)c2ccccc2)cc1.c1ccc(P(c2ccccc2)c2ccccc2)cc1 [[Cu(PPh3)2NO3]] | > 80 | > 20 | > 20 | –
